The text below walks through data of paper PMC9071123 (PLoS Neglected Tropical Diseases, 2022).

Each structure is given as a SMILES string. Values joined by “and” are separate entries in the source; they are usually repeats but may differ in a detail not shown here. Equal values may be shown once. Where a name gives a salt, the structure may show the parent alone. Read-outs that look alike come from different tables or passages of the source. Where only a bound is given, the exact number is not on record here.

Usually EC50 stands for the concentration at which the effect is half-maximal.

The test system of data set [1] is SARS-CoV-2. Briefly: microbe, parasite or virus in culture. The data set is classed as cell-based, SARS-CoV-2 (WIV-04). Particulars: for EC50: Severe acute respiratory syndrome coronavirus 2, Vero C1008, 36 h.
In data set [2] the test system is SARS-CoV-2. Briefly: microbe, parasite or virus in culture. The data set is classed as cell-based, SARS-CoV-2 (WIV-04). Particulars: Severe acute respiratory syndrome coronavirus 2, Caco-2, 36 h.
Data set [3] relates to Renilla luciferase (Rluc) replicon of SARS-CoV-2. The data set is classed as cell-based.
The subject of data set [4] is VSV-delG-Rluc-SARS-CoV-2-S pseudovirus. The class given is cell-based. Particulars: 10 μM.
For data set [5], the system named is SARS-CoV-2 S-mediated cell-cell fusion. The class given is cell-based.
In data set [6] the test system is Vero E6 cells. The following applies: African green monkey, 36 h.
Another data set relates to Caco2 cells. Particulars: human, 36 h.
A short description of data set [7]: in vitro. Particulars: African green monkey.
Data set [8] in a line: in vitro. Particulars: human.
In data set [9] the test system is SARS-CoV-2. Briefly: Virus attachment assay in Vero E6 cells. Particulars: 10 μM, Vero E6, 4°C 1 h.
Experimental: After synchronized adsorption for 1 h, the unbound SARS-CoV-2 virions were removed by PBS washing, and the relative levels of bound SARS-CoV-2 virions were measured by qRT-PCR assay.
In data set [10] the test system is SARS-CoV-2. Particulars: previous study ref 19; cited from earlier work.
Data set [11] in a line: Cytotoxicity CCK8 assay, Vero E6. The following applies: African green monkey, Vero E6 cells.
The test system of data set [12] is Vero E6 cells. Briefly: Cytotoxicity CCK8 assay, Vero E6.

On to `COc1cc2c3cc1Oc1c(OC)c(OC)cc4c1[C@@H](Cc1ccc(O)c(c1)Oc1ccc(cc1)C[C@@H]3N(C)CC2)N(C)CC4` [Berbamine hydrochloride], for which the EC50 with SARS-CoV-2 [1] worked out at 1730 nM; in the data set on SARS-CoV-2 [2] it was 1890 nM. Also, the “replicon luciferase signal, drug treatment versus DMSO” value in data set [3] is on record as “no significant difference”. The “reduction of intracellular luciferase activity compared to DMSO treatment” value in data set [4] (Vero E6, 24 h post pseudovirus infection) was “about 10 fold”. For the same compound, the “intracellular luciferase activity, mean” value in [4] (Vero E6, 24 h post-infection (DMSO mean 389736)) came out at 47678.5. Further, in data set [5], the “inhibition of S-mediated cell-cell fusion (syncytial phenotype)” value (“inhibition … (syncytial phenotype)” below) was “little or no such syncytial phenotype was observed”. Moreover, the “%inhibiton, mean (CC50 data, CCK-8)” value is listed as -6.065% in the data set with Vero E6 cells [6] (0.3125 μM); -4.636% with Vero E6 cells [6] (0.625 μM); -0.8416% in the data set on Vero E6 cells [6] (1.25 μM); -0.7911% in the data set with Vero E6 cells [6] (2.5 μM); -7.026% with Vero E6 cells [6] (5 μM); -8.006% with Vero E6 cells [6] (10 μM). For the same compound, the “%inhibiton, mean (CC50 data, CCK-8)” value with Vero E6 cells [6] (20 μM) is given as 1.038%; with Vero E6 cells [6] (40 μM), 73.2674%; in the data set with Vero E6 cells [6] (80 μM), 78.8829%; in the data set on Caco2 cells (0.3125 μM), -11.728%; with Caco2 cells (0.625 μM), -16.6504%; in the data set on Caco2 cells (1.25 μM), -15.2704%. The “%inhibiton, mean (CC50 data, CCK-8)” value with Caco2 cells (2.5 μM) is reported as -14.7661%; in the data set on Caco2 cells (5 μM), -19.7288%; in the data set with Caco2 cells (10 μM), -18.7648%; in the data set with Caco2 cells (20 μM) it was -1.748%; in the data set with Caco2 cells (40 μM), 50.1206%; in the data set on Caco2 cells (80 μM), 67.6973%. In addition, the CC50 at 36 h in “in vitro [7]” was 66900 nM; in the data set “in vitro [8]”, 31900 nM. Besides, the “cell-attached viral RNA copies versus DMSO control group” value with SARS-CoV-2 [9] is recorded as “no significant difference”. In the data set on SARS-CoV-2 [9] (MOI 0.05 (DMSO = 100)), the “Viral copies (Normalized to DMSO), mean” value is given as 94.7359.
Turning to `COc1ccc2cc1Oc1ccc(cc1)C[C@H]1c3c(cc4c(c3Oc3cc5c(cc3OC)CCN(C)[C@@H]5C2)OCO4)CCN1C` [Cepharanthine, cepharanthine], the “%inhibiton, mean (viral RNA genomic copy number)” value in the data set on SARS-CoV-2 [1] is 99.5371% and 98.6265% and 86.3235% and 71.2349% and 67.6803%. In addition, the “inhibition against SARS-CoV-2 infection” value in the data set on SARS-CoV-2 [1] was “dose-dependent inhibition”. For the same compound, the “selective index (SI)” value in the data set on SARS-CoV-2 [1] is >8.93. Further, a half-maximal effect with SARS-CoV-2 [1] (EC50) was put at 2240 nM. Further, the “inhibition … (syncytial phenotype)” value in data set [5] is “apparent inhibitory effects”. Moreover, the “inhibition of the SARS-CoV-2 induced cytopathic effect” value in the data set on SARS-CoV-2 [10] is reported as “efficiently inhibit”. For the same compound, in [11], the CC50 at 36 h was > 20000 nM. The “%inhibiton, mean (CC50 data, CCK-8)” value in the data set on Vero E6 cells [12] (Vero-E6, 0.078125 μM) stood at 9.153%; in the data set on Vero E6 cells [12] (Vero-E6, 0.15625 μM), 9.469%; in the data set on Vero E6 cells [12] (Vero-E6, 0.3125 μM), 5.3801%; with Vero E6 cells [12] (Vero-E6, 0.625 μM), 1.292%; in the data set with Vero E6 cells [12] (Vero-E6, 1.25 μM) it was 5.646%; in the data set with Vero E6 cells [12] (Vero-E6, 2.5 μM), 5.87%. In addition, the “%inhibiton, mean (CC50 data, CCK-8)” value is recorded as 7.302% in the data set with Vero E6 cells [12] (Vero-E6, 5 μM); 3.537% in the data set on Vero E6 cells [12] (Vero-E6, 10 μM); 2.215% with Vero E6 cells [12] (Vero-E6, 20 μM).
As to `COc1ccc2cc1Oc1ccc(cc1)C[C@H]1c3cc(c(OC)cc3CCN1C)Oc1c(O)c(OC)cc3c1[C@H](C2)N(C)CC3` [Fangchinoline, fangchinoline], the “inhibition against SARS-CoV-2 infection” value in the data set on SARS-CoV-2 [1] was “dose-dependent inhibition”. Further, the “selective index (SI)” value with SARS-CoV-2 [1] is on record as >9.57. For the same compound, the response in the data set on SARS-CoV-2 [1] was half-maximal at 2090 nM (EC50). Moreover, the “inhibition … (syncytial phenotype)” value in data set [5] is “apparent inhibitory effects”. Further, the “inhibition of the SARS-CoV-2 induced cytopathic effect” value with SARS-CoV-2 [10] was “efficiently inhibit”. In addition, the CC50 at 36 h in data set [11] was > 20000 nM. Also, the “%inhibiton, mean (CC50 data, CCK-8)” value with Vero E6 cells [12] (Vero-E6, 0.078125 μM) stood at 7.966%; with Vero E6 cells [12] (Vero-E6, 0.15625 μM), 4.163%; with Vero E6 cells [12] (Vero-E6, 0.3125 μM), 4.478%; in the data set with Vero E6 cells [12] (Vero-E6, 0.625 μM) it was 8.257%; in the data set on Vero E6 cells [12] (Vero-E6, 1.25 μM), 10.5597%; in the data set with Vero E6 cells [12] (Vero-E6, 2.5 μM), 7.088%. Also, the “%inhibiton, mean (CC50 data, CCK-8)” value was 14.0504% with Vero E6 cells [12] (Vero-E6, 5 μM); 8.415% in the data set with Vero E6 cells [12] (Vero-E6, 10 μM); 0.3804% with Vero E6 cells [12] (Vero-E6, 20 μM).
With `COc1ccc2cc1Oc1ccc(cc1)C[C@H]1c3cc(c(OC)cc3CCN1C)Oc1c(OC)c(OC)cc3c1[C@H](C2)N(C)CC3` [Tetrandrine, tetrandrine], the “inhibition against SARS-CoV-2 infection” value with SARS-CoV-2 [1] is given as “dose-dependent inhibition”. Also, the “selective index (SI)” value with SARS-CoV-2 [1] is given as >6.92. The compound further showed an EC50 in the data set on SARS-CoV-2 [1] of 2890 nM. Also, in data set [5], the “inhibition … (syncytial phenotype)” value is on record as “apparent inhibitory effects”. For the same compound, the “inhibition of the SARS-CoV-2 induced cytopathic effect” value with SARS-CoV-2 [10] was “efficiently inhibit”. Besides, the CC50 at 36 h in data set [11] is > 20000 nM. Also, the “%inhibiton, mean (CC50 data, CCK-8)” value came out at 5.4651% with Vero E6 cells [12] (Vero-E6, 0.078125 μM); 9.075% with Vero E6 cells [12] (Vero-E6, 0.15625 μM); 8.155% in the data set on Vero E6 cells [12] (Vero-E6, 0.3125 μM); 11.3125% in the data set with Vero E6 cells [12] (Vero-E6, 0.625 μM); 11.2558% with Vero E6 cells [12] (Vero-E6, 1.25 μM); 4.063% in the data set with Vero E6 cells [12] (Vero-E6, 2.5 μM). Further, the “%inhibiton, mean (CC50 data, CCK-8)” value in the data set on Vero E6 cells [12] (Vero-E6, 5 μM) is listed as 5.628%; in the data set with Vero E6 cells [12] (Vero-E6, 10 μM) it was -1.303%; with Vero E6 cells [12] (Vero-E6, 20 μM), -2.23%.
Take `COc1ccc(C[C@@H]2c3cc(Oc4cc(C[C@@H]5c6cc(O)c(OC)cc6CCN5C)ccc4O)c(OC)cc3CCN2C)cc1` [isoliensinine]: the “inhibition … (syncytial phenotype)” value in data set [5] was “apparent inhibitory effects”. For the same compound, in the data set with SARS-CoV-2 [10], the “inhibition of the SARS-CoV-2 induced cytopathic effect” value is reported as “efficiently inhibit”.
`COc1cc2c(cc1OC)[C@@H](Cc1ccc(O)c(Oc3cc4c(cc3OC)CCN(C)[C@@H]4Cc3ccc(O)cc3)c1)N(C)CC2` [liensinine]: in data set [5], the “inhibition … (syncytial phenotype)” value is given as “apparent inhibitory effects”. For the same compound, in the data set with SARS-CoV-2 [10], the “inhibition of the SARS-CoV-2 induced cytopathic effect” value is given as “efficiently inhibit”.
